Data from patent publication US7951399B2, “Process for activation of drugs in a vibrational mill” (Eurand Pharmaceuticals Ltd., priority 2001, dated 2011).
Values after ≈ are worked out from the molar mass of the structure shown.

Assay: physchem

solubility: 73 µg/mL (≈ 354 µM)
Compound: CC(C)Cc1ccc(C(C)C(=O)O)cc1 (stereo not shown) [Ibuprofen]
